# Assay results published in US20250339409A1, “USES OF PAN BET INHIBITORS” (VYNE THERAPEUTICS INC., priority 2021, published 2025).
# System: 92 target genes related to melanogenesis
# Assay: RHE vitiligo model: gene expression analysis (TaqMan low density array, RT-qPCR)
# Format: cell-based, human
# Set-up: key to FC of XPC gene expression / FC of GNAS gene expression / FC of ATP7A gene expression / FC of TYR gene expression / FC of RAB27A gene expression / FC of KITLG gene expression / FC of ADCY2 gene expression: fold change in expression by comparative Ct (ΔΔCt) method
# Description: At the end of the treatments, total RNAs is extracted from 3 epidermis per condition (n=3) using the Qiagen RNeasy kit (Qiagen; 74106). Epidermis is rinsed with cold PBS and lysed in the ad hoc buffer provided in the kit. Extraction is performed according to the supplier's recommendations. The collected RNAs is stored at −80° C.
# The RNA concentration is determined by spectrophotometric measurement (QIAxpert, Qiagen) and the RNA quality is analyzed by capillarity electrophoresis (Agilent Bioanalyzer 2100-Agilent RNA 6000 Nano Kit, 5067-1511). The integrity of the total RNA is assessed by visualization of intact ribosomal RNA bands. For the total RNA from higher eukaryotes, the size of the ribosomal bands should be 1.9 kb for the 18S-RNA and 4.7 kb for the 28S-RNA. The intensity of the band corresponding to the 28S RNA must be greater than the intensity of the band corresponding to the 18S-RNA (left profile, in image below). Small and diffuse bands representing low molecular weight RNAs (tRNA and 5S ribosomal RNA) may be present. Degradation of the RNA is apparent as a smearing of ribosomal RNA bands and high molecular weight background as shown below (right profile, in image below).
# Reverse transcription is performed with the high-capacity RNA-to-cDNA kit (Applied Biosystems; 438706) from total RNA according to the manufacturer's instructions. The cDNAs are then stored at −20° C. until use in polymerase chain reactions.
# The microfluidic TaqMan qPCR arrays (or TaqMan low density arrays) were designed by StratiCELL and manufactured on demand by Applied Biosystems. […]
# The TaqMan arrays are processed as described by the manufacturer's instructions (Micro Fluidic Card Getting Started Guide, Applied Biosystems). Briefly, cDNAs are mixed with a specific buffer (TaqMan Fast Advanced Master Mix, 4444557, Applied Biosystems) before being injected into the arrays and dispersed into the wells by centrifugation. Arrays are sealed and qPCRs are run using the Quantstudio7 Real-Time PCR System (Applied Biosystems) and its software (QuantStudio real time PCR Software v1.3. software, Applied Biosystems).
# Threshold cycles (Ct) are obtained for each gene. Results files are exported from the qPCR device and analyzed using the DataAssist Software (v3.00, Applied Biosystems) designed to perform relative quantification of gene expression using the comparative Ct (ΔΔCt) method, through a combination of statistical analysis.
# The data obtained for the conditions treated with the formulations is compared to the untreated condition or to the condition treated with the vehicle. The effects of the cytokine cocktail stimulation are analyzed as well by comparison of the data obtained for the untreated control (unstimulated) to the data obtained for the stimulated untreated control. The Ct values are normalized to the mean Ct of 3 housekeeping genes present on the array. The maximum Ct cut-off value was fixed at 36 cycles meaning that Ct values above 36 are not considered in the analysis. […]
# [1] = Stimulated + BETi1 0.001% vs Stimulated + BETi1 vehicle, results after correction
# [2] = Stimulated + BETi1 0.001% vs Stimulated + BETi1 vehicle, results after correction, inconclusive, Ct of some replicates above 36
# [3] = Stimulated + BETi1 0.001% vs Stimulated + BETi1 vehicle, results as originally presented (transcription error)
# [4] = Stimulated + BETi1 0.001% vs Stimulated + BETi1 vehicle, results as originally presented (transcription error), inconclusive, Ct of some replicates above 36
# [5] = Stimulated + BETi1 1% vs Stimulated + BETi1 vehicle, results after correction
# [6] = Stimulated + BETi1 1% vs Stimulated + BETi1 vehicle, results after correction, inconclusive, Ct of some replicates above 36
# [7] = Stimulated + BETi1 1% vs Stimulated + BETi1 vehicle, results as originally presented (transcription error for some genes)
# [8] = Stimulated + BETi1 1% vs Stimulated + BETi1 vehicle, results as originally presented (transcription error for some genes), inconclusive, Ct of some replicates above 36
# [9] = Stimulated RHE treated with BETi1 at 0.01% vs BETi1 vehicle
# [10] = Stimulated RHE treated with BETi1 at 0.1% vs BETi1 vehicle
# [11] = stimulated RHE, vs stimulated + vehicle
# [12] = stimulated RHE, vs stimulated + vehicle, listed as BETi1 0.1%
# [13] = stimulated RHE, vs stimulated + vehicle, listed as BETi1 1%
smiles,measurement,setting,value
Cn1cc(-c2cccc(O)c2Oc2ccccc2)c2cc[nH]c2c1=O [BETi1],"WNT signaling pathway upregulation, increase","1% concentration, relative to vehicle / stimulated control",10 fold
same,FC of AP1M1 gene expression,[1],0.7447
same,FC of APAF1 gene expression,[1],1.5797
same,FC of BCL2 gene expression,[1],0.7462
same,FC of HPS4 gene expression,[1],0.6711
same,FC of POMC gene expression,[1],0.5586
same,FC of ASIP gene expression,[2],0.7104
same,FC of CALML6 gene expression,[2],0.7104
same,FC of GNAO1 gene expression,[2],0.7104
same,FC of AP1M1 gene expression,[3],0.6303
same,FC of APAF1 gene expression,[3],3.5532
same,FC of BCL2 gene expression,[3],1.3312
same,FC of HPS4 gene expression,[3],0.4147
same,FC of POMC gene expression,[3],0.3574
same,FC of ASIP gene expression,[4],0.6303
same,FC of GNAO1 gene expression,[4],0.6303
same,FC of AIM1 gene expression,[5],0.4502
same,FC of AP1S1 gene expression,[5],0.6116
same,FC of ATP2A2 gene expression,[5],0.2632
same,FC of ATP7A gene expression,[5],0.4094
same,FC of BAD gene expression,[5],0.2547
same,FC of BCL2 gene expression,[5],0.5772
same,FC of CREBBP gene expression,[5],0.3195
same,FC of DVL1 gene expression,[5],0.4492
same,FC of EDN1 gene expression,[5],0.0395
same,FC of EDNRB gene expression,[5],0.1544
same,FC of GADD45A gene expression,[5],0.2375
same,FC of GNAI1 gene expression,[5],0.3672
same,FC of GNAS gene expression,[5],0.4273
same,FC of HPS1 gene expression,[5],0.5127
same,FC of HPS4 gene expression,[5],0.3088
same,FC of IL1A gene expression,[5],0.0124
same,FC of IL1B gene expression,[5],0.0208
same,FC of KIT gene expression,[5],0.6404
same,FC of MAPK14 gene expression,[5],0.3927
same,FC of MLPH gene expression,[5],0.3039
same,FC of MYO5A gene expression,[5],0.4524
same,FC of OCA2 gene expression,[5],0.293
same,FC of PCNA gene expression,[5],7.0134
same,FC of POMC gene expression,[5],0.1039
same,FC of PTGER3 gene expression,[5],0.4259
same,FC of RAB3A gene expression,[5],14.5685
same,FC of RAB27A gene expression,[5],0.2763
same,FC of RAB32 gene expression,[5],0.1471
same,FC of RAB38 gene expression,[5],0.3579
same,FC of SLC24A5 gene expression,[5],0.1051
same,FC of SNAP25 gene expression,[5],0.2366
same,FC of SOX9 gene expression,[5],0.0882
same,FC of SOX10 gene expression,[5],0.4034
same,FC of STX6 gene expression,[5],0.3683
same,FC of TYR gene expression,[5],0.405
same,FC of USF1 gene expression,[5],0.497
same,FC of WNT16 gene expression,[5],10.0801
same,FC of XPC gene expression,[5],1.6569
same,FC of ASIP gene expression,[6],0.4753
same,FC of CALML6 gene expression,[6],0.4753
same,FC of CAMK2A gene expression,[6],0.4753
same,FC of GNAO1 gene expression,[6],0.4753
same,FC of PTGER1 gene expression,[6],0.4753
same,FC of AIM1 gene expression,[7],0.4753
same,FC of AP1S1 gene expression,[7],0.727
same,FC of ATP2A2 gene expression,[7],0.293
same,FC of ATP7A gene expression,[7],0.4273
same,FC of BAD gene expression,[7],0.2763
same,FC of BCL2 gene expression,[7],0.6404
same,FC of CREBBP gene expression,[7],0.3672
same,FC of DVL1 gene expression,[7],0.4524
same,FC of EDN1 gene expression,[7],0.1039
same,FC of EDNRB gene expression,[7],0.2375
same,FC of GADD45A gene expression,[7],0.2632
same,FC of GNAI1 gene expression,[7],0.3927
same,FC of GNAS gene expression,[7],0.4502
same,FC of HPS1 gene expression,[7],0.6116
same,FC of HPS4 gene expression,[7],0.3579
same,FC of IL1A gene expression,[7],0.0395
same,FC of IL1B gene expression,[7],0.0882
same,FC of KIT gene expression,[7],1.6569
same,FC of MAPK14 gene expression,[7],0.405
same,FC of MLPH gene expression,[7],0.3195
same,FC of MYO5A gene expression,[7],0.4753
same,FC of OCA2 gene expression,[7],0.3088
same,FC of PCNA gene expression,[7],7.0134
same,FC of POMC gene expression,[7],0.1471
same,FC of PTGER3 gene expression,[7],0.4492
same,FC of RAB3A gene expression,[7],14.5685
same,FC of RAB27A gene expression,[7],0.3039
same,FC of RAB32 gene expression,[7],0.2366
same,FC of RAB38 gene expression,[7],0.3683
same,FC of SLC24A5 gene expression,[7],0.1544
same,FC of SNAP25 gene expression,[7],0.2547
same,FC of SOX9 gene expression,[7],0.1051
same,FC of SOX10 gene expression,[7],0.4094
same,FC of STX6 gene expression,[7],0.4034
same,FC of TYR gene expression,[7],0.4259
same,FC of USF1 gene expression,[7],0.5772
same,FC of WNT16 gene expression,[7],10.0801
same,FC of XPC gene expression,[7],1.8367
same,FC of ASIP gene expression,[8],0.5127
same,FC of CALML6 gene expression,[8],0.497
same,FC of CAMK2A gene expression,[8],0.4753
same,FC of GNAO1 gene expression,[8],0.4753
same,FC of PTGER1 gene expression,[8],0.4753
same,FC of AP1S1 gene expression,[9],1.3312
same,FC of ASIP gene expression,[9],0.6303
same,FC of CALML6 gene expression,[9],0.6303
same,FC of CAMK2A gene expression,[9],0.6303
same,FC of GADD45A gene expression,[9],0.3574
same,FC of GNAO1 gene expression,[9],0.6303
same,FC of POMC gene expression,[9],0.4147
same,FC of RAB3A gene expression,[9],3.5532
same,FC of ADCY2 gene expression,[10],0.1137
same,FC of AP1M1 gene expression,[10],0.6311
same,FC of ATP2A2 gene expression,[10],0.2769
same,FC of BAD gene expression,[10],0.2735
same,FC of CALML6 gene expression,[10],0.5429
same,FC of CAMK2A gene expression,[10],0.5043
same,FC of EDN1 gene expression,[10],0.0413
same,FC of EDNRB gene expression,[10],0.2737
same,FC of GADD45A gene expression,[10],0.1803
same,FC of GNAI1 gene expression,[10],0.5815
same,FC of HPS4 gene expression,[10],0.4224
same,FC of IL1A gene expression,[10],0.0454
same,FC of IL1B gene expression,[10],0.0727
same,FC of KITLG gene expression,[10],1.8415
same,FC of MAPK14 gene expression,[10],0.4724
same,FC of MLPH gene expression,[10],0.355
same,FC of MYO5A gene expression,[10],0.5462
same,FC of PCNA gene expression,[10],3.2615
same,FC of POMC gene expression,[10],0.1665
same,FC of PPIA gene expression,[10],1.6969
same,FC of PTGER3 gene expression,[10],0.4799
same,FC of RAB3A gene expression,[10],10.8195
same,FC of RAB32 gene expression,[10],0.2378
same,FC of RAB38 gene expression,[10],0.5643
same,FC of SLC24A5 gene expression,[10],0.272
same,FC of SOX9 gene expression,[10],0.1155
same,FC of SOX10 gene expression,[10],0.4196
same,FC of STX6 gene expression,[10],0.4214
same,FC of WNT16 gene expression,[10],8.7922
same,RQ (fold change) AP1S1,[11],1.3312
same,RQ (fold change) APAF1,[11],1.5797
same,RQ (fold change) HSP4,[11],0.6711
same,RQ (fold change) KITLG,[11],1.8415
same,RQ (fold change) POMC,[11],0.5586
same,RQ (fold change) PPIA,[11],1.6969
same,RQ (fold change) XPC,[11],1.6569
same,RQ (fold change) RAB3A,"stimulated RHE, vs stimulated + vehicle, listed as BETi1 0.01%",3.5532
same,RQ (fold change) EDN1,[12],0.0413
same,RQ (fold change) IL1A,[12],0.0454
same,RQ (fold change) IL1B,[12],0.0727
same,RQ (fold change) PCNA,[12],3.2615
same,RQ (fold change) RAB3A,[12],10.8195
same,RQ (fold change) SOX9,[12],0.1155
same,RQ (fold change) WNT16,[12],8.7922
same,RQ (fold change) EDN1,[13],0.0395
same,RQ (fold change) IL1A,[13],0.0124
same,RQ (fold change) IL1B,[13],0.0208
same,RQ (fold change) PCNA,[13],7.0134
same,RQ (fold change) RAB3A,[13],14.5685
same,RQ (fold change) SOX9,[13],0.0882
same,RQ (fold change) WNT16,[13],10.0801
